# According to patent publication US20240025906A1 (NEURON23, INC., priority 2022, published 2024):
# Read-outs that look alike come from different tables or passages of the source.
# Key:
# TYK2 JH2 = target: T1, TYK2 JH2 (Homo sapiens, UniProt P29597); assay: TYK2 JH2 binding assay (KINOMEscan KdELECT competitive binding); details: TYK2 JH2 domain
# T1 construct: purchased DiscoverX (KINOMEscan KdELECT service); host or cells: E. coli BL21-derived (T7 phage display) or HEK-293
# Summary of the method: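 The assay measures displacement of DNA- or phage-tagged TYK2 pseudokinase domain from an affinity resin; compound binding lowers the amount captured, read by qPCR. Incubation lasts 1 h at room temperature.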
# [1] = tested on: JAK1/TYK2 pSTAT5 (Tyr694/699) in THP-1 cell line; assay: IFNa-stimulated JAK1/TYK2 pSTAT5 (Tyr694/699) inhibition cellular assay, AlphaLISA; assay type: cell-based; details: Homo sapiens, THP-1 cells, AlphaLISA (Assay B)
# Summary of the method: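 pSTAT5 (Tyr694/699) in lysates quantified by AlphaLISA (615 nm) after 30 min IFNa stimulation (100 ng/mL stock) of THP-1 cells. The cells, 2e4 per well in HBSS, had first been exposed 1 h at 37° C. to eight 6-fold compound dilutions, 10000 down to 0.04 nM final. IC50 fitted by 4PL regression, bottom 0, Hill slope −1.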
# [2] = DiscoverX KINOMEscan KdELECT (Assay A), read-out: Biochemical TYK2_DiscoverX_JH2_BND_Kd
# [3] = IFNa-stimulated, read-out: Cellular_THP1_IFNa-pSTATS_TYK2
# [4] = KINOMEscan KdELECT (Assay A), read-out: Biochemical TYK2_DiscoverX_JH2_BND_Kd
# [5] = IFNa-stimulated pSTAT5 (Tyr694/699), read-out: Cellular_THP1_IFNa-pSTATS_TYK2
# [6] = KINOMEscan KdELECT (Assay A), read-out: Biochemical TYK2_JH2_Kd
# [7] = IFNa-stimulated, read-out: Cellular THP1_IFNa-pSTATS_IC50
# T1 sequence (P29597 589-875 limits assumed): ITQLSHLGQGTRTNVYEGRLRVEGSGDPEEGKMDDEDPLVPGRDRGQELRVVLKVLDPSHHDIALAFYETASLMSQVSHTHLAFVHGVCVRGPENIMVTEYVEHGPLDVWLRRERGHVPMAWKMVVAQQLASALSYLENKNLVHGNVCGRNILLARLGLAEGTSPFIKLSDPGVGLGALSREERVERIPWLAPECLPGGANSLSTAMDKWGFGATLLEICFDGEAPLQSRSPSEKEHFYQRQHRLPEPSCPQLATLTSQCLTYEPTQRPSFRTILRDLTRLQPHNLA
Compound,Kd (TYK2 JH2; [2]) [µM],"IC50 [1, 3] [µM]",Kd (TYK2 JH2; [4]) [µM],"IC50 [1, 5] [µM]",also measured
"CNc1ncc(-c2nc3cc(OC)ccc3o2)c2cc(NC(=O)[C@@H]3C[C@@H]3C(F)(F)F)ncc12 (single isomer, unassigned) [Example 397]",≤ 0.1,≤ 0.5,,,
"CNc1ncc(COc2ccccc2)c2cc(NC(=O)C3CC3)ncc12 [Example 45, N-(8-(methylamino)-5-(phenoxymethyl)-2,7-naphthyridin-3-yl)cyclopropanecarboxamide]",,,,,"Kd (TYK2 JH2; [6]): ≤ 0.1 µM; IC50 [1, 7]: > 0.5 µM"
"CNc1ncc(-c2nc3cc(C(C)(F)F)ccc3o2)c2cc(NC(=O)C3CC3)ncc12 [Example 243, N-(5-(5-(1,1-difluoroethyl)benzo[d]oxazol-2-yl)-8-(methylamino)-2,7-naphthyridin-3-yl)cyclopropanecarboxamide]",≤ 0.1,≤ 0.5,,,
"CNc1ncc(C#Cc2ccc(N3CCOCC3)cc2)c2cc(NC(=O)[C@@H]3C[C@@H]3C(F)F)ncc12 (single isomer, unassigned) [Example 1074]",,,≤ 0.1,≤ 0.5,
"CNc1ncc(Br)c2c1cnc1[nH]ccc12 [Example 824, 9-bromo-N-methyl-3H-pyrrolo[2,3-c][2,7]naphthyridin-6-amine]",,> 0.5,0.1 to 1,,
"CNc1ncc(-c2nc3cc(N4CC[C@@H](OC)C4)ccc3o2)c2cc(NC(=O)C3CC3)ncc12 [Example 281, (R)-N-(5-(5-(3-methoxypyrrolidin-1-yl)benzo[d]oxazol-2-y1)-8-(methylamino)-2,7-naphthyridin-3-yl)cyclopropanecarboxamide]",≤ 0.1,≤ 0.5,,,
"CNc1ncc(-c2nc3cc(N4CCO[C@H](C(C)(C)O)C4)ccc3o2)c2cc(NC(=O)C3CC3)ncc12 (single isomer, unassigned) [Example 926]",,≤ 0.5,≤ 0.1,,
"CNc1ncc(-c2nc3cc(N4CCOC(C(F)F)C4)ccc3o2)c2cc(NC(=O)[C@H]3C[C@H]3C)ncc12 (stereo partly drawn) [Example 1057, (1S,2R)—N-(5-(5-(2-(difluoromethyl)morpholino)benzo[d]oxazol-2-yl)-8-(methylamino)-2,7-naphthyridin-3-yl)-2-methylcyclopropane-1-carboxamide]",,,≤ 0.1,≤ 0.5,
"CNc1ncc(-c2nc3cc(C(=O)NCC4CC4)ccc3o2)c2cc(NC(=O)C3CC3)ncc12 [Example 1101, 2-(6-(cyclopropanecarboxamido)-1-(methylamino)-2,7-naphthyridin-4-yl)-N-(cyclopropylmethyl)benzo[d]oxazole-5-carboxamide]",,,≤ 0.1,≤ 0.5,
"CNc1ncc(C#Cc2c(C)nn(C)c2C)c2cc(NC(=O)C3CC3)ncc12 [Example 1018, N-(8-(methylamino)-5-((1,3,5-trimethyl-1H-pyrazol-4-yl)ethynyl)-2,7-naphthyridin-3-yl)cyclopropanecarboxamide]",,,≤ 0.1,≤ 0.5,
"[2H]C([2H])([2H])Nc1ncc(-c2nc3c(OC)cccc3o2)c2cc(NC(=O)C3CC3)ncc12 [Example 363, N-(5-(4-methoxybenzo[d]oxazol-2-yl)-8-((methyl-d3)amino)-2,7-naphthyridin-3-yl)cyclopropanecarboxamide]",≤ 0.1,≤ 0.5,,,
"CCNc1ncc(-c2nc3ccc(N4CCO[C@@H](C)C4)cn3n2)c2cc(NC(=O)C3CC3)ncc12 [Example 515, (S)-N-(8-(ethylamino)-5-(6-(2-methylmorpholino)-[1,2,4]triazolo[1,5-a]pyridin-2-yl)-2,7-naphthyridin-3-yl)cyclopropanecarboxamide]",≤ 0.1,≤ 0.5,,,
"CNc1ncc(-c2nc3ccc(N4CCO[C@@H]([C@@H](C)O)C4)cn3n2)c2cc(NC(=O)C3CC3)ncc12 (single isomer, unassigned) [Example 1046]",,,≤ 0.1,≤ 0.5,
"CNc1ncc(-c2nc3cc(N4CCC(F)(F)C4)ccc3o2)c2cc(NC(=O)C3CC3)ncc12 [Example 942, N-(5-(5-(3,3-difluoropyrrolidin-1-yl)benzo[d]oxazol-2-yl)-8-(methylamino)-2,7-naphthyridin-3-yl)cyclopropanecarboxamide]",,≤ 0.5,≤ 0.1,,
"CNc1ncc(-c2ccn(CC3CCSCC3)n2)c2cc(NC(=O)C3CC3)ncc12 [Example 153A, N-(8-(methylamino)-5-(1-((tetrahydro-2H-thiopyran-4-yl)methyl)-1H-pyrazol-3-yl)-2,7-naphthyridin-3-yl)cyclopropanecarboxamide]",,,,,"Kd (TYK2 JH2; [6]): ≤ 0.1 µM; IC50 [1, 7]: > 0.5 µM"
"CNc1ncc(-c2nc3cc(C4COC4)ccc3o2)c2cc(NC(=O)C3CC3)ncc12 [Example 258, N-(8-(methylamino)-5-(5-(oxetan-3-yl)benzo[d]oxazol-2-yl)-2,7-naphthyridin-3-yl)cyclopropanecarboxamide]",≤ 0.1,≤ 0.5,,,
"CNc1ncc(-c2nc3ccc(N4CCOCC4)cn3n2)c2cc(Nc3ccccn3)ncc12 [Example 536, N^1-methyl-4-(6-morpholino-[1,2,4]triazolo[1,5-a]pyridin-2-yl)-N^6-(pyridin-2-yl)-2,7-naphthyridine-1,6-diamine]",≤ 0.1,≤ 0.5,,,

# Second part, led by results:
Kd (TYK2 JH2; [2]) [µM],"IC50 [1, 3] [µM]",Kd (TYK2 JH2; [4]) [µM],"IC50 [1, 5] [µM]",Compound,also measured
≤ 0.1,≤ 0.5,,,"CNc1ncc(-c2nc3cc(Oc4ccncc4)ccc3o2)c2cc(NC(=O)C3CC3)ncc12 [Example 340, N-(8-(methylamino)-5-(5-(pyridin-4-yloxy)benzo[d]oxazol-2-yl)-2,7-naphthyridin-3-yl)cyclopropanecarboxamide]",
,,≤ 0.1,≤ 0.5,"CNc1ncc(C#Cc2ccc(-n3ncccc3=O)cc2)c2cc(NC(=O)C3CC3)ncc12 [Example 998, N-(8-(methylamino)-5-((4-(6-oxopyridazin-1(6H)-yl)phenyl)ethynyl)-2,7-naphthyridin-3-yl)cyclopropanecarboxamide]",
,> 0.5,≤ 0.1,,"C=C(c1ccc(OCC(C)(C)O)cc1)c1cnc(NC)c2cnc(NC(=O)C3CC3)cc12 [Example 785, N-(5-(1-(4-(2-hydroxy-2-methylpropoxy)phenyl)vinyl)-8-(methylamino)-2,7-naphthyridin-3-yl)cyclopropanecarboxamide]",
,≤ 0.5,≤ 0.1,,"CNc1ncc(C#Cc2ccc(N3CCC3COC)cn2)c2cc(NC(=O)C3CC3)ncc12 (stereo not shown) [Example 727, N-(5-((5-(2-(methoxymethyl)azetidin-1-yl)pyridin-2-yl)ethynyl)-8-(methylamino)-2,7-naphthyridin-3-yl)cyclopropanecarboxamide]",
,≤ 0.5,≤ 0.1,,"CNc1ncc(-c2ccc(Oc3ccccn3)cc2)c2cc(NC(=O)C3CC3)ncc12 [Example 863, N-(8-(methylamino)-5-(4-(pyridin-2-yloxy)phenyl)-2,7-naphthyridin-3-yl)cyclopropanecarboxamide]",
,,≤ 0.1,> 0.5,"CNc1ncc(C#Cc2ccc(OC)cn2)c2cc(NC(=O)C3COC3)ncc12 [Example 1084, N-[5-[2-(5-methoxy-2-pyridyl)ethynyl]-8-(methylamino)-2,7-naphthyridin-3-yl]oxetane-3-carboxamide]",
